Reference: PubChem BioAssay AID248 (DTP/NCI, 2004)
Where “and” joins values, the source holds several entries; their conditions need not be identical. Equal entries are not always repeated. Inconclusive results and toxic doses are left out.

Test system: L1210 leukemia ip in BDF1 mice, survival T/C
Test: NCI In Vivo Anticancer Drug Screen. Data for tumor model L1210 Leukemia (intraperitoneal) in B6D2F1 (BDF1) mice
Conditions: endpoint: mean survival time, higher = longer survival
Procedure, shortened: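 Transplantable tumor model; survival measured in treated vs vehicle control mice. Value = treated/control.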

[1] = dose: 100.0 mg/kg/injection, schedule: Q04DX003 (ip), vehicle: saline with Tween-80
[2] = dose: 200.0 mg/kg/injection, schedule: Q04DX003 (ip), vehicle: saline with Tween-80
[3] = dose: 400.0 mg/kg/injection, schedule: Q04DX003 (ip), vehicle: saline with Tween-80
[4] = dose: 100.0 mg/kg/injection, schedule: Q01DX009 (ip), vehicle: Klucel (hydroxypropylcellulose) (HPC)
[5] = dose: 200.0 mg/kg/injection, schedule: Q01DX009 (ip), vehicle: Klucel (hydroxypropylcellulose) (HPC)
[6] = dose: 400.0 mg/kg/injection, schedule: Q01DX009 (ip), vehicle: Klucel (hydroxypropylcellulose) (HPC)
[7] = dose: 100.0 mg/kg/injection, schedule: Q01DX001 (ip), vehicle: saline with Tween-80
[8] = dose: 200.0 mg/kg/injection, schedule: Q01DX001 (ip), vehicle: saline with Tween-80
[9] = dose: 400.0 mg/kg/injection, schedule: Q01DX001 (ip), vehicle: saline with Tween-80
[10] = dose: 100.0 mg/kg/injection, schedule: Q04DX003 (ip), vehicle: Klucel (hydroxypropylcellulose) (HPC)
[11] = dose: 200.0 mg/kg/injection, schedule: Q04DX003 (ip), vehicle: Klucel (hydroxypropylcellulose) (HPC)
[12] = dose: 400.0 mg/kg/injection, schedule: Q04DX003 (ip), vehicle: Klucel (hydroxypropylcellulose) (HPC)
[13] = dose: 50.0 mg/kg/injection, schedule: Q01DX009 (ip), vehicle: saline
[14] = dose: 100.0 mg/kg/injection, schedule: Q01DX009 (ip), vehicle: saline
[15] = dose: 100.0 mg/kg/injection, schedule: Q04DX003 (ip), vehicle: saline
[16] = dose: 200.0 mg/kg/injection, schedule: Q01DX009 (ip), vehicle: saline
[17] = dose: 200.0 mg/kg/injection, schedule: Q04DX003 (ip), vehicle: saline
[18] = dose: 100.0 mg/kg/injection, schedule: Q01DX009 (ip), vehicle: saline with Tween-80
[19] = dose: 25.0 mg/kg/injection, schedule: Q01DX009 (ip), vehicle: Klucel (hydroxypropylcellulose) (HPC)
[20] = dose: 50.0 mg/kg/injection, schedule: Q01DX009 (ip), vehicle: Klucel (hydroxypropylcellulose) (HPC)
[21] = dose: 200.0 mg/kg/injection, schedule: Q01DX009 (ip), vehicle: saline with Tween-80
[22] = dose: 100.0 mg/kg/injection, schedule: Q01DX001 (ip), vehicle: carboxymethylcellulose (CMC)
[23] = dose: 100.0 mg/kg/injection, schedule: Q01DX001 (ip), vehicle: saline
[24] = dose: 200.0 mg/kg/injection, schedule: Q01DX001 (ip), vehicle: saline
[25] = dose: 400.0 mg/kg/injection, schedule: Q01DX001 (ip), vehicle: saline

SMILES: CCOC(=O)c1cc2ccccc2c2ccccc12
- T/C [1]: 98 % of control
- T/C [2]: 95 % of control
- T/C [3]: 98 % of control

SMILES: COc1ccc2c(n1)Sc1c(N)nc(N)nc1N2
- T/C [4]: 103 % of control
- T/C [5]: 103 % of control
- T/C [6]: 88 % of control

SMILES: COCc1ccc(C(=O)Nc2c(N)ncnc2N)cc1
- T/C [7]: 100 % of control
- T/C [8]: 102 % of control
- T/C [9]: 95 % of control

SMILES: O=[N+]([O-])c1cc(Cl)c(Cl)cc1N1CCCC1
- T/C [10]: 93 % of control
- T/C [11]: 88 % of control
- T/C [12]: 101 % of control

SMILES: COC(Cl)C(Cl)(Cl)Cl (stereo not drawn)
- T/C [13]: 93 % of control
- T/C (dose: 100.0 mg/kg/injection, schedule: Q01DX001 (ip), vehicle: acetone): 103 % of control
- T/C [14]: 88 % of control
- T/C [15]: 103 % of control
- T/C (dose: 200.0 mg/kg/injection, schedule: Q01DX001 (ip), vehicle: acetone): 90 % of control
- T/C [16]: 91 % of control
- T/C [17]: 100 % of control
- T/C (dose: 400.0 mg/kg/injection, schedule: Q01DX001 (ip), vehicle: acetone): 92 % of control

SMILES: ClP1(c2ccccc2)=NP(Cl)(c2ccccc2)=NP(Cl)(c2ccccc2)=NP(Cl)(c2ccccc2)=N1 (stereo not drawn)
- T/C (dose: 50.0 mg/kg/injection, schedule: Q01DX009 (ip), vehicle: saline with Tween-80): 97 % of control
- T/C [18]: 89 % of control

SMILES: COc1cc2c(c(OC)c1O)-c1ccc(OC)c(=O)cc1[C@@H](NC(C)=O)CC2
- T/C (dose: 25.0 mg/kg/injection, schedule: Q01DX009 (ip), vehicle: saline): 159 % of control
- T/C [13]: 106 % of control and 108 % of control
- T/C (dose: 50.0 mg/kg/injection, schedule: Q04DX002 (ip), vehicle: saline): 111 % of control
- T/C (dose: 200.0 mg/kg/injection, schedule: Q04DX002 (ip), vehicle: saline): 122 % of control
- T/C [17]: 95 % of control

SMILES: O=C(Nc1ccccc1Cl)Oc1c(Cl)cc(Cl)c2ccccc12
- T/C [19]: 100 % of control
- T/C [20]: 105 % of control
- T/C (dose: 100.0 mg/kg/injection, schedule: Q04DX002 (ip), vehicle: Klucel (hydroxypropylcellulose) (HPC)): 91 % of control

SMILES: CNC(=O)CCCCC(=O)NC
- T/C [14]: 107 % of control
- T/C [15]: 103 % of control
- T/C [16]: 102 % of control
- T/C [17]: 98 % of control
- T/C (dose: 400.0 mg/kg/injection, schedule: Q01DX009 (ip), vehicle: saline): 108 % of control
- T/C (dose: 400.0 mg/kg/injection, schedule: Q04DX003 (ip), vehicle: saline): 101 % of control

SMILES: CC(C)(Cl)CCl
- T/C [18]: 106 % of control
- T/C [1]: 101 % of control
- T/C [21]: 89 % of control
- T/C [2]: 98 % of control

SMILES: Nc1ncnc2nc(SC3OC(CO)C(O)C3O)[nH]c12 (stereo not drawn)
- T/C (dose: 150.0 mg/kg/injection, schedule: Q01DX001 (ip), vehicle: saline): 100 % of control
- T/C (dose: 300.0 mg/kg/injection, schedule: Q01DX001 (ip), vehicle: saline): 100 % of control

SMILES: CC1(C)N=C(N)N=C(N)N1c1ccc(C(=O)c2ccccc2)cc1
- T/C (dose: 25.0 mg/kg/injection, schedule: Q04DX003 (ip), vehicle: saline): 96 % of control
- T/C (dose: 50.0 mg/kg/injection, schedule: Q04DX003 (ip), vehicle: saline): 89 % of control

SMILES: CC(=O)c1ccc(OC(=O)Nc2cc([N+](=O)[O-])ccc2F)cc1
- T/C [10]: 98 % of control
- T/C [11]: 101 % of control
- T/C [12]: 95 % of control

SMILES: CN(C)N1CCC2(CCC(C(C)(C)C)CC2)CC1
- T/C (dose: 50.0 mg/kg/injection, schedule: Q01DX001 (ip), vehicle: carboxymethylcellulose (CMC)): 101 % of control
- T/C [22]: 95 % of control

SMILES: O=C(O)COc1c(Cl)cc(Cl)c2cccnc12
- T/C [22]: 93 % of control
- T/C (dose: 200.0 mg/kg/injection, schedule: Q01DX001 (ip), vehicle: carboxymethylcellulose (CMC)): 101 % of control

SMILES: CCCCCCCCCCCCCCCCN(C(=S)c1ccccc1)c1ccccc1
- T/C [4]: 89 % of control
- T/C [10]: 104 % of control
- T/C [5]: 90 % of control
- T/C [11]: 94 % of control
- T/C [6]: 87 % of control
- T/C [12]: 96 % of control

SMILES: NCC(O)COc1ccccc1N (stereo not drawn)
- T/C (dose: 3.12 mg/kg/injection, schedule: Q01DX009 (ip), vehicle: saline): 97 % of control
- T/C (dose: 6.25 mg/kg/injection, schedule: Q01DX009 (ip), vehicle: saline): 106 % of control
- T/C (dose: 12.5 mg/kg/injection, schedule: Q01DX009 (ip), vehicle: saline): 100 % of control
- T/C (dose: 12.5 mg/kg/injection, schedule: Q04DX003 (ip), vehicle: saline): 93 % of control

SMILES: CCc1ccc2ccc3c4ccccc4ccc3[n+]2c1
- T/C (dose: 10.0 mg/kg/injection, schedule: Q01DX001 (ip), vehicle: saline): 93 % of control
- T/C (dose: 20.0 mg/kg/injection, schedule: Q01DX001 (ip), vehicle: saline): 90 % of control
- T/C (dose: 40.0 mg/kg/injection, schedule: Q01DX001 (ip), vehicle: saline): 94 % of control

SMILES: ClC1(Cl)C2CC3C4C=CC(C4)C3C21 (stereo not drawn)
- T/C (dose: 100.0 mg/kg/injection, schedule: Q01DX001 (ip), vehicle: Klucel (hydroxypropylcellulose) (HPC)): 108 % of control
- T/C (dose: 200.0 mg/kg/injection, schedule: Q01DX001 (ip), vehicle: Klucel (hydroxypropylcellulose) (HPC)): 100 % of control

SMILES: CC1(C)CC2(OC2c2ccccc2)C(C)(O)c2ccccc21 (stereo not drawn)
- T/C [1]: 98 % of control
- T/C [2]: 104 % of control
- T/C [3]: 96 % of control

SMILES: O=S(=O)(Nc1ccc(F)cc1)c1ccccc1
- T/C [4]: 96 % of control
- T/C [10]: 103 % of control
- T/C [5]: 102 % of control
- T/C [11]: 95 % of control
- T/C [6]: 105 % of control
- T/C [12]: 93 % of control

SMILES: Cn1nc(-c2ccc([N+](=O)[O-])o2)nc1N
- T/C (dose: 50.0 mg/kg/injection, schedule: Q01DX001 (ip), vehicle: saline): 98 % of control
- T/C [23]: 96 % of control
- T/C [24]: 98 % of control
- T/C [25]: 104 % of control

SMILES: CCC(C(O)c1ccc(F)cc1)C(O)(C(F)(F)F)C(F)(F)F (stereo not drawn)
- T/C (dose: 50.0 mg/kg/injection, schedule: Q01DX009 (ip), vehicle: other): 93 % of control
- T/C (dose: 100.0 mg/kg/injection, schedule: Q01DX009 (ip), vehicle: other): 102 % of control
- T/C [1]: 101 % of control
- T/C (dose: 200.0 mg/kg/injection, schedule: Q01DX009 (ip), vehicle: other): 98 % of control
- T/C [2]: 100 % of control
- T/C [3]: 90 % of control

SMILES: NC(=S)NNC1CCCCC1
- T/C (dose: 22.0 mg/kg/injection, schedule: Q01DX Z (ip), vehicle: methylcellulose (MC)): 94 % of control
- T/C (dose: 33.0 mg/kg/injection, schedule: Q01DX Z (ip), vehicle: methylcellulose (MC)): 117 % of control
- T/C (dose: 50.0 mg/kg/injection, schedule: Q01DX Z (ip), vehicle: methylcellulose (MC)): 93 % of control

SMILES: COc1ccc(OC(=O)Nc2cc([N+](=O)[O-])ccc2OC)cc1
- T/C [19]: 89 % of control
- T/C [20]: 96 % of control
- T/C [4]: 88 % of control
- T/C [5]: 88 % of control

SMILES: Cc1nnc(N(C)C)nc1C
- T/C [7]: 98 % of control
- T/C [8]: 97 % of control
- T/C [9]: 108 % of control

SMILES: CCCC(=O)Nc1ccc(O)cc1
- T/C [18]: 100 % of control
- T/C [1]: 96 % of control
- T/C [21]: 110 % of control
- T/C [2]: 101 % of control
- T/C (dose: 266.0 mg/kg/injection, schedule: Q01DX009 (ip), vehicle: saline with Tween-80): 109 % of control
- T/C [3]: 106 % of control

SMILES: CC(=O)NC1CCC(=O)C=C1c1ccccc1 (stereo not drawn)
- T/C [23]: 96 % of control
- T/C [24]: 107 % of control
- T/C [25]: 94 % of control

SMILES: CS(=O)(=O)OCCCl
- T/C (dose: 18.8 mg/kg/injection, schedule: Q01DX010 (ip), vehicle: saline): 92 % of control and 96 % of control
- T/C (dose: 37.5 mg/kg/injection, schedule: Q01DX010 (ip), vehicle: saline): 92 % of control and 100 % of control
- T/C (dose: 75.0 mg/kg/injection, schedule: Q01DX010 (ip), vehicle: saline): 101 % of control and 104 % of control
- T/C (dose: 150.0 mg/kg/injection, schedule: Q01DX010 (ip), vehicle: saline): 97 % of control and 102 % of control
